Active and inactive are the calls of the source. How the calls were made is not given here; tested in parental BL2 cells.
system: cytotoxicity, CellTiter-Glo ATP luminescence; assay: cell cytotoxicity, dose response, cytotoxicity control, CellTiter-Glo (AID 1259333)

| SMILES | AC50 |
| --- | --- |
| COc1ccc(S(=O)(=O)Nc2ccc3c(c2)C(=O)N([C@@H](C)CO)C[C@@H](C)[C@@H](CN(C)Cc2ccc(C(F)(F)F)cc2)OCCCC[C@H](C)O3)cc1 | > 20 µM (inactive) |
| OC(c1cc(-c2cccc(Cl)c2)nc2ccccc12)C1CCCCN1 (stereo not drawn) | 2.86 µM |
| CC(=O)Nc1ccc(Sc2ccc([N+](=O)[O-])o2)cc1 | 6.13 µM |
| CC(=O)O[C@H]1C[C@H](O[C@H]2[C@@H](O)C[C@H](O[C@H]3[C@@H](O)C[C@H](O[C@H]4CC[C@@]5(C)C(CCC6C5C[C@@H](O)[C@]5(C)[C@@H](C7=CC(=O)OC7)CC[C@]65O)C4)O[C@@H]3C)O[C@@H]2C)O[C@H](C)[C@H]1O[C@@H]1O[C@H](CO)[C@@H](O)[C@H](O)[C@H]1O (stereo partly drawn) | 0.758 µM |
| CCN(CC)CCCNc1nc2ccccc2c2[nH]c3ccc(OC)cc3c12 | 6.93 µM |
| C[C@H]1CN([C@@H](C)CO)C(=O)c2c(c3ccccc3n2C)-c2ccccc2CO[C@@H]1CN(C)Cc1cccc(C(F)(F)F)c1 | 4.21 µM |
| COc1cc(C(C)C)c2c(c1)S(=O)(=O)N(COc1cc(=O)n3cccc(OCCN4CCCCC4)c3n1)C2=O | 10.5 µM |
| O=C1/C(=C/c2ccccc2)C[C@@]2(O)C3Cc4ccc(O)c5c4[C@@]2(CCN3CC2CC2)[C@H]1O5 | 2.6 µM |
| COc1ccccc1C(=O)Nc1ccc2c(c1)C(=O)N(C)[C@H]1CC[C@H](CC(=O)Nc3cccc(C(C)C)c3)O[C@@H]1CO2 | > 20 µM (inactive) |
| CC(C)c1ccc(NC(=O)Nc2nc(C(N)COCc3ccccc3)cs2)cc1 (stereo not drawn) | 4.21 µM |
| C[C@@H]1C[C@@H]([C@H](O)CC2CC(=O)NC(=O)C2)C(=O)[C@@H](C)C1 | > 20 µM (inactive) |
| C[C@@H]1CN([C@@H](C)CO)C(=O)c2ccccc2-c2ccccc2CO[C@H]1CN(C)Cc1ccccc1C(F)(F)F | 7.28 µM |
| CSc1ccc2c(c1)N(CCC1CCCCN1C)c1ccccc1S2 (stereo not drawn) | 8.67 µM |
| COc1ccc(/C=N/Nc2ncccc2[N+](=O)[O-])c(OC)c1 | 5.79 µM |
| CC(C)(C)c1cc(C=C(C#N)C#N)cc(C(C)(C)C)c1O | > 20 µM (inactive) |
| CC(C)c1c(O)ccc2c1CCC1C(C)(C)CCC[C@]21C (stereo partly drawn) | 6.74 µM |
| COc1ccc(C#Cc2ccc([C@H]3[C@@H](CO)N4CCCCN(S(=O)(=O)c5cn(C)cn5)C[C@H]34)cc2)cc1 | 10.8 µM |
| CC12CCC3C(CCC4(O)CC(O)CCC34C=O)C1(O)CCC2C1=CC(=O)OC1 (stereo not drawn) | 3.23 µM |
| CN1C(=O)/C(=N\OC(=O)c2cccc3ccccc23)c2ccccc21 | 4.04 µM |
| C[C@@H]1CCCCO[C@H](CN(C)CC2CCCCC2)[C@H](C)CN([C@@H](C)CO)C(=O)c2cc(NC(=O)Nc3ccc(C(F)(F)F)cc3)ccc2O1 | 4.91 µM |
| Cc1cnc(NC(=O)c2ccccn2)s1 | 7.7 µM |

| SMILES | AC50 |
| --- | --- |
| OCC1OC(n2cnc3cc(Cl)c(Cl)cc32)C(O)C1O (stereo not drawn) | > 20 µM (inactive) |
| CO[C@H]1CC(O[C@@H]2/C(C)=C/C[C@@H]3C[C@@H](C[C@]4(CC[C@H](C)[C@@H](C5CCCCC5)O4)O3)OC(=O)[C@@H]3C=C(C)/C(=N/O)[C@H]4OC/C(=C\C=C\[C@@H]2C)[C@]43O)O[C@@H](C)C1O (stereo partly drawn) | 9.15 µM |
| Cc1ccc(S(=O)(=O)C=CS(=O)(=O)c2ccc(C)cc2)cc1 | 3.97 µM |
| COC(=O)c1ccccc1-c1c2ccc(=N)cc-2oc2cc(N)ccc12 | > 20 µM (inactive) |
| O=C1NC2c3c(Cl)sc(Cl)c3C(=O)C2O1 (stereo not drawn) | 3.72 µM |
| Oc1c(Cl)cc(Cl)c(Cl)c1Cc1c(O)c(Cl)cc(Cl)c1Cl | 10.2 µM |
| CC1CC(C)C(=NNC(N)=O)C(C(O)CC2CCC(=O)NC2=O)C1 (stereo not drawn) | > 20 µM (inactive) |
| COc1ccc2c3c(n(C)c2c1)[C@@H](CO)N(C(=O)Nc1ccc(F)cc1)CC31CN(Cc2ccccc2F)C1 | > 20 µM (inactive) |
| O=S(=O)(c1cccc2cnccc12)N1CCNCC1 | 7.09 µM |
| C[C@H]1CN([C@@H](C)CO)C(=O)c2c(c3ccccc3n2C)-c2ccccc2CO[C@@H]1CN(C)S(=O)(=O)c1ccc([N+](=O)[O-])cc1 | > 20 µM (inactive) |
| O=C(Nc1ccc(C(F)(F)F)cc1)N1C[C@@H]2N[C@H](C1)C2c1ccc(-c2ccccc2)cc1 (stereo partly drawn) | 8.09 µM |
| Cn1cnc([N+](=O)[O-])c1S(=O)(=O)Oc1cccc2ccccc12 | 1.91 µM |
| C[C@H](CO)N1C[C@H](C)[C@H](CN(C)C(=O)Nc2cccc(Cl)c2Cl)OCc2ccccc2-c2c(n(C)c3ccccc23)C1=O | 2.51 µM |
| COc1ccc(C(=O)O/N=C2\C(=O)N(C)c3ccccc32)cc1 | 2 µM |
| C[C@@H]1CN([C@H](C)CO)C(=O)c2ccccc2-c2ccccc2CO[C@@H]1CN(C)Cc1ccccc1C(F)(F)F | 6.93 µM |
| CC1CC(C)C(=O)C(C(O)CC2CC(=O)NC(=O)C2)C1 (stereo not drawn) | > 20 µM (inactive) |
| C[n+]1c(-c2ccccc2)cc2c(=Cc3ccc([N+](=O)[O-])cc3)c3ccccc3n21 | 9.92 µM |
| CCS(=O)(=O)N1[C@H](CO)[C@@H](c2ccc(C#Cc3ccccc3F)cc2)[C@@H]1C#N | > 20 µM (inactive) |
| COC(=O)C1=C(C)NC(C)=C(C(=O)OCCCN2CCC(c3ccccc3)(c3ccccc3)CC2)[C@H]1c1cccc([N+](=O)[O-])c1 | > 20 µM (inactive) |
| COc1ccc(S(=O)(=O)Nc2ccc3c(c2)C(=O)N([C@H](C)CO)C[C@@H](C)[C@H](CN(C)Cc2ccc(C(F)(F)F)cc2)OCCCC[C@@H](C)O3)cc1 | 8.94 µM |
| Cc1ccc2c(=O)c3ccccc3n(CCCN)c2c1C | 2.79 µM |

| SMILES | AC50 |
| --- | --- |
| Cc1ccsc1C(=O)OCC(=O)c1cc(C)n(CC2CCCO2)c1C (stereo not drawn) | > 20 µM (inactive) |
| COc1ccc(S(=O)(=O)Nc2ccc3c(c2)C(=O)N([C@H](C)CO)C[C@H](C)[C@@H](CN(C)Cc2ccc(C(F)(F)F)cc2)OCCCC[C@@H](C)O3)cc1 | 10.5 µM |
| C[C@@H]1CN([C@@H](C)CO)C(=O)c2c(c3ccccc3n2C)-c2ccccc2CO[C@H]1CN(C)Cc1cccc(C(F)(F)F)c1 | 3.94 µM |
| CC1=C(C#N)c2nc(N)c(C#N)c(C)c2/C1=C\c1ccccc1 | 8.93 µM |
| CN(C)c1ccc(C=c2c3cc(O)ccc3n3c2cc(-c2ccccc2)[n+]3C)cc1 | 10.8 µM |
| C[C@@H]1CN([C@H](C)CO)C(=O)c2c(c3ccccc3n2C)-c2ccccc2CO[C@H]1CN(C)C(=O)c1cc(Cl)cc(Cl)c1 | > 20 µM (inactive) |
| N#Cc1cccc(-c2ccc(C3[C@H]4CNC[C@@H]3N4Cc3ccc4c(c3)OCO4)cc2)c1 (stereo partly drawn) | > 20 µM (inactive) |
| CCc1cc2c(=O)c(-c3ccc4c(c3)OCCO4)coc2c(CN2CCCCC2C)c1O (stereo not drawn) | 8.84 µM |
| CC(C)[C@H](CO)Nc1nc(Nc2cccc(Cl)c2)c2ncn(C(C)C)c2n1 | 2.86 µM |
| CCCC(C)Sc1nc2c([nH]1)c(=S)n(C)c(=O)n2C (stereo not drawn) | 8.95 µM |
| COc1ccc2c3c([nH]c2c1)[C@H](CO)N(C(=O)Nc1ccc(F)cc1)CC31CCN(C(=O)c2ccccc2F)CC1 | 8.44 µM |
| COc1ccc(S(=O)(=O)Nc2ccc3c(c2)C(=O)N([C@H](C)CO)C[C@@H](C)[C@@H](CN(C)Cc2ccc(C(F)(F)F)cc2)OCCCC[C@H](C)O3)cc1 | > 20 µM (inactive) |
| C[C@@H]1CN([C@@H](C)CO)C(=O)c2c(c3ccccc3n2C)-c2ccccc2CO[C@H]1CN(C)Cc1ccccc1 | 9.77 µM |
| N#C[C@@H]1[C@H](c2ccc(C#CC3CCCCC3)cc2)[C@@H](CO)N1S(=O)(=O)c1ccccc1 | 7.22 µM |
| N#C[C@H]1[C@H](c2ccc(C#CC3CCCCC3)cc2)[C@H](CO)N1C(=O)Nc1ccc(F)cc1 | > 20 µM (inactive) |
| COC(=O)C1=C(C(=O)OC)C(C(=O)OC)C(C(=O)OC)C(C(=O)OC)(C(=O)OC)C(C(=O)OC)=C1C(=O)OC (stereo not drawn) | 7.79 µM |
| COc1ccc(CN2CC3(CN(C(=O)Cc4ccccc4)C3)c3c([nH]c4cc(OC)ccc34)[C@@H]2CO)cc1 | 9.43 µM |
| Cn1cnc(CCNC(=O)C[C@@H]2CC[C@@H]3[C@H](COC[C@@H](O)CN3C(=O)Nc3ccc(C(F)(F)F)cc3)O2)c1 | > 20 µM (inactive) |
| CCCNC(=O)N1[C@H](C#N)[C@@H](c2ccc(-c3cccc(OC)c3)cc2)[C@H]1CO | > 20 µM (inactive) |
| COc1cc(C(=O)CCN2CCC(c3ccccc3)C2)cc(OC)c1OC (stereo not drawn) | 7.27 µM |
| COCC(=O)N1[C@H](C#N)[C@H](c2ccc(C#Cc3ccccc3F)cc2)[C@H]1CO | 11.5 µM |

| SMILES | AC50 |
| --- | --- |
| OC1CC2CCC(C1)N2CCCN1c2ccccc2Sc2ccc(Cl)cc21 (stereo not drawn) | 10.6 µM |
| N#Cc1c(Br)n(C2OC(CO)C(O)C2O)c2ncnc(N)c12 (stereo not drawn) | 4.91 µM |
| C[C@H](CO)N1C[C@H](C)[C@H](CN(C)CC2CCCCC2)OCCCC[C@H](C)Oc2ccc(NC(=O)Nc3ccc(C(F)(F)F)cc3)cc2C1=O | > 20 µM (inactive) |
| Cc1noc(C)c1S(=O)(=O)N(C)C[C@H]1OCc2ccccc2-c2c(n(C)c3ccccc23)C(=O)N([C@@H](C)CO)C[C@H]1C | 10.1 µM |
| Clc1ccc(COC(Cn2ccnc2)c2ccc(Cl)cc2Cl)c(Cl)c1 (stereo not drawn) | 8.13 µM |
| C=C1C(=O)C23C(O)C1CCC2C12CCCC(C)(COC(C)=O)C1C(O)C3(O)OC2 (stereo not drawn) | 5.52 µM |
| N=C(N)c1ccc(OCCCCCOc2ccc(C(=N)N)cc2)cc1 | > 20 µM (inactive) |
| CCCC(=O)NC1=C(Cl)C(=O)c2ccccc2C1=O | 1.12 µM |
| Cc1c(C(=O)c2cccc3ccccc23)c2cccc3c2n1[C@H](CN1CCOCC1)CO3 | 3.44 µM |
| CCCNC(=O)N1[C@@H](C#N)[C@H](c2ccc(-c3cccc(OC)c3)cc2)[C@@H]1CO | > 20 µM (inactive) |
| O=C(Nc1ccccc1F)N1CCCCN2[C@H](CO)[C@H](c3ccc(/C=C/c4ccccc4)cc3)[C@H]2C1 | > 20 µM (inactive) |
| O=C(C1CCC1)N1CCc2cc(S(=O)(=O)N3CCCCC3)ccc21 | 2.65 µM |
| CC(C)(C)[C@H](N)C(=O)N[C@H]1CCC2C3CC=C4C[C@@H](O)CC[C@]4(C)C3CC[C@@]21C (stereo partly drawn) | 5.7 µM |
| O=C1Cc2c([nH]c3ccc(Br)cc23)-c2ccccc2N1 | 10.2 µM |
| COc1ccc(CC2C(=O)NC(C)C(=O)N(C)C3Cc4ccc(cc4)Oc4cc(ccc4O)CC(C(=O)NC(C)C(=O)NC(C)C(=O)N2C)N(C)C3=O)cc1 (stereo not drawn) | 10.8 µM |
| C[C@@H]1CCCCO[C@@H](CN(C)S(=O)(=O)c2ccc(Cl)cc2)[C@H](C)CN([C@H](C)CO)C(=O)c2cc(NC(=O)Nc3ccc(C(F)(F)F)cc3)ccc2O1 | 6.61 µM |
| COc1cccc(C#Cc2ccc([C@H]3[C@@H](C#N)N(C(=O)c4ccccn4)[C@@H]3CO)cc2)c1 | 9.74 µM |
| CC(C)(C)CC(C)(C)c1ccc(O)c(Cc2ccc(Cl)cc2Cl)c1 | 7.05 µM |
| COc1ccc(C[C@H]2NC[C@H](O)[C@H]2OC(C)=O)cc1 | 2.75 µM |
| COc1ccc(/C=C/C(=O)Nc2ccccc2C(=O)O)cc1OC | > 20 µM (inactive) |

Source: PubChem BioAssay AID1259333 (Broad Institute, 2017)
